Results: article PMC11879040, “Advancing systemic toxicity risk assessment: Evaluation of a NAM-based toolbox approach” (Toxicological Sciences, 2024)
Where a name gives a salt, the structure may show the parent alone. Read-outs that look alike come from different tables or passages of the source.

What was measured:
MCF7 cells = assay: High-throughput transcriptomics (HTTr, TempO-Seq), MCF7, 24 h; type: cell-based, human
Protocol: (§1) HepG2, HepaRG, and MCF7 cells were treated with each compound for 24 h across a dose range of 7 concentrations and lysed using TempO-Seq lysis buffer (BioSpyder Technologies, proprietary kit, see [Middleton et al. 2022] for method details). Sequencing was performed using TempO-Seq (BioClavis) version 2 of the human whole transcriptome panel and analyzed as described previously in Middleton et al.

HepaRG cells = assay: High-throughput transcriptomics (HTTr, TempO-Seq), HepaRG, 24 h; type: cell-based, human
Protocol: as §1

[1] = tested on: 63 targets with known safety liabilities; assay: In vitro pharmacological profiling (IPP) panel, screening at 10 or 100 µM and dose response, minimum IC50/AC50; type: biochemical; settings: lowest AC50 across IPP panel (systemic targets); cell_type -; read-out: ipp_lowest_ac50_systemic PoD
HepG2 cells [2] = assay: High-throughput transcriptomics (HTTr, TempO-Seq), HepG2, 24 h; type: cell-based, human
Protocol: as §1

HepG2 cells [3] = assay: Cell stress panel (CSP), 24 h, 8 concentrations, BIFROST global PoD; type: cell-based; settings: HepG2; cell stress panel PoD
Protocol: Compounds were tested using the previously developed cell stress panel ([Hatherell et al. 2020]) and the expanded biomarker panel outlined in Middleton et al. HepG2 cells were treated with all compounds for 24 h across 8 concentrations prior to biomarker analysis. The same plate layout and number of replicates (3 biological and 2 technical) were used as previously for each assay within the panel.

[4] = tested on: Sodium channel protein type 5 subunit alpha (site 2), SCN5A (r); type: binding, rat; settings: IPP screening at 100 uM; control veratridine
[5] = tested on: Thyroid hormone receptor alpha, THRA (h); assay: IPP THRA coactivator recruitment (agonist); type: biochemical, human; settings: 100 uM; agonist; T3; * denotes assay interference (2-Amino-6-chloro-4-nitrophenol, HC Red 3)
[6] = tested on: Glutamate receptor ionotropic NMDA 1 non-selective, GRIN1 (r); settings: IPP screening at 100 uM; control CGS 19755
[7] = target: T1, Adenosine receptor A2a, ADORA2A (h) (Homo sapiens, UniProt P29274); assay: IPP ADORA2A binding (agonist radioligand); settings: IPP screening at 100 uM; control NECA
T1 construct: purchased Eurofins Cerep (SafetyScreen44-based IPP panel)
T1 sequence (P29274 whole entry): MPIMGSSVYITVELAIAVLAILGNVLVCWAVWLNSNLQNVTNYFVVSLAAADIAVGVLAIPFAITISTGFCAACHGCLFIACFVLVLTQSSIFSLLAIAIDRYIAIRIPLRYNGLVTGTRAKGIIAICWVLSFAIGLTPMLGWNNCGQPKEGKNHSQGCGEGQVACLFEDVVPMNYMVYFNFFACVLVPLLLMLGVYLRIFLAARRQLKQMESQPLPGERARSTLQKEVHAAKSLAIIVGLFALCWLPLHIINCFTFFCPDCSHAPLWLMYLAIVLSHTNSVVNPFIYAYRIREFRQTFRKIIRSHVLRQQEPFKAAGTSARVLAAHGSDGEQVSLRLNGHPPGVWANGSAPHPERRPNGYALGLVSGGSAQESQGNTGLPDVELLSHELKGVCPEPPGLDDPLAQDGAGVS

Tubulin (r) = assay: IPP Tubulin binding; design: species or system rat; settings: 100 uM; ligand/control Colchicine
[8] = tested on: Potassium Voltage-Gated Channel Kv non-selective, KCNQ1 (r); assay: IPP KCNQ1 binding (antagonist radioligand); design: species or system rat; settings: IPP screening at 100 uM; control α-dendrotoxin
[9] = tested on: Gamma-aminobutyric acid receptor subunit alpha-1 BZD site, GABRA1A (r); type: binding, rat; settings: IPP screening at 100 uM; control diazepam
[10] = Assignment of risk classifications to benchmark chemical-exposure scenarios; settings: Dermal; […]; Body lotion; Exp1; from table S1
rat = settings: cited from earlier work
[11] = target: T2, Estrogen receptor, ER1 (h) (Homo sapiens, UniProt P03372); assay: IPP ER1 coactivator recruitment (antagonist); type: biochemical; settings: 100 uM, estriol, * denotes assay interference (2-Amino-6-chloro-4-nitrophenol, HC Red 3)
T2 construct: purchased Eurofins Cerep (SafetyScreen44-based IPP panel)
T2 sequence (P03372 1-595): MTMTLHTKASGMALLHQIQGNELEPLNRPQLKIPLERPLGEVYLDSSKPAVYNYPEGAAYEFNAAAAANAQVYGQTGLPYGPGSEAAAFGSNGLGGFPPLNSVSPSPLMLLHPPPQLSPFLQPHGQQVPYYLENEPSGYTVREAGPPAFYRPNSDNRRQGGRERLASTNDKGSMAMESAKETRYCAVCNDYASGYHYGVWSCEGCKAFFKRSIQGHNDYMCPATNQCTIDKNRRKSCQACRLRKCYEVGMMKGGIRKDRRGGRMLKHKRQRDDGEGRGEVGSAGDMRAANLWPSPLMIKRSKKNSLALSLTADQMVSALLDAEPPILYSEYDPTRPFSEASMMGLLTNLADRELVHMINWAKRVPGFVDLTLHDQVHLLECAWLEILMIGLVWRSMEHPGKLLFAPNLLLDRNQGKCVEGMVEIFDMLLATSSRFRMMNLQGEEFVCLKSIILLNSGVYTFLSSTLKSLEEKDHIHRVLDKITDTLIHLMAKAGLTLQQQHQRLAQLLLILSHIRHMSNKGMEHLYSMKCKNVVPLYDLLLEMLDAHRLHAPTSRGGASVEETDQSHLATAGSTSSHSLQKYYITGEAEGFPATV

[12] = target: T2, Estrogen receptor, ER1 (h); assay: IPP ER1 coactivator recruitment (agonist); type: biochemical; settings: 100 uM, estriol, * denotes assay interference (2-Amino-6-chloro-4-nitrophenol, HC Red 3)
[13] = target: Potassium voltage-gated channel subfamily H member 2 hERG, KCNH2 (h) (Homo sapiens, UniProt Q12809); settings: human, 100 µM
Sequence of Potassium voltage-gated channel subfamily H member 2 hERG, KCNH2 (h) (Q12809 whole entry): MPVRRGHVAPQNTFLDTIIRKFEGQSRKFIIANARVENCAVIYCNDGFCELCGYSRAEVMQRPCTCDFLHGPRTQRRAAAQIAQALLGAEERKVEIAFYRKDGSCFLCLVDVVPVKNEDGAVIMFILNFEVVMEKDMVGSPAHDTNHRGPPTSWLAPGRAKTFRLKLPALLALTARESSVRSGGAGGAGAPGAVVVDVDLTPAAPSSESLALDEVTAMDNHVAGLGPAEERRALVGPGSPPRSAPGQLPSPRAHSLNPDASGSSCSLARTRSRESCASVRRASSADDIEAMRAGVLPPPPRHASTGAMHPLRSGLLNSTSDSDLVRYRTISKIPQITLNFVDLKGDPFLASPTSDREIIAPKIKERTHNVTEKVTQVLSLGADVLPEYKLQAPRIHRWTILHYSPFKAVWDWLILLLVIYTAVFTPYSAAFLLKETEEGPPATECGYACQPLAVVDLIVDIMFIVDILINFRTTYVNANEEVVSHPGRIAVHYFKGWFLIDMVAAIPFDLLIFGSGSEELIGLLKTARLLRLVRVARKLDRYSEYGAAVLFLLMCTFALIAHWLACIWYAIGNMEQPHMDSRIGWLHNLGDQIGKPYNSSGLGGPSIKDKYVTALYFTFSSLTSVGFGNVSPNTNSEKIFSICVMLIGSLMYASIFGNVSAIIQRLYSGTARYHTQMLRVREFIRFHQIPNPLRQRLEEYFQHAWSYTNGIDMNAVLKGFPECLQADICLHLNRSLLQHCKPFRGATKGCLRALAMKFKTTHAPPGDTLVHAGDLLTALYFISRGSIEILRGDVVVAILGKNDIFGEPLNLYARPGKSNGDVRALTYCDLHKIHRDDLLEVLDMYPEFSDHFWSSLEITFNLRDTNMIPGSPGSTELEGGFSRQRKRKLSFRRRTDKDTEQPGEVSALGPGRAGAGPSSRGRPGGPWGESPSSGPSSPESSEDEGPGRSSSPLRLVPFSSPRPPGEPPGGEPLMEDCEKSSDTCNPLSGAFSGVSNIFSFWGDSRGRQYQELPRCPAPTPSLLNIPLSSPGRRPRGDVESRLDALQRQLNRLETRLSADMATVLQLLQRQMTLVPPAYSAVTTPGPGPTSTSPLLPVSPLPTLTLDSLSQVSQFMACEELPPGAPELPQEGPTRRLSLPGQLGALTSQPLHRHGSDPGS

[14] = MCF-7, HTTr minimum pathway BMD(L)
[15] = HepaRG, HTTr minimum pathway BMD(L)
[16] = HepG2, HTTr minimum pathway BMD(L)

| Compound | pod_httr_bifrost PoD (MCF7 cells; MCF-7, HTTr BIFROST PoD) [µM] | podl_path_minbmd PoD (MCF7 cells; [14]) [µM] | pod_httr_bifrost PoD (HepaRG cells; HepaRG, HTTr BIFROST PoD) [µM] | podl_path_minbmd PoD (HepaRG cells; [15]) [µM] | pod_httr_bifrost PoD (HepG2 cells [2]; HepG2, HTTr BIFROST PoD) [µM] | podl_path_minbmd PoD (HepG2 cells [2]; [16]) [µM] | pod_cell_stress PoD (HepG2 cells [3]) [µM] | further results |
| --- | --- | --- | --- | --- | --- | --- | --- | --- |
| CCN(CC)CCNC(=O)c1cc(Cl)c(N)cc1OC [Metclopramide] | 18.3439 | 87.28 | 30.9764 | 92.5373 | 16.0473 | 79.9772 | 73.2603 | AC50 [1]: 0.046 µM |
| CN(C)[C@@H]1C(O)=C(C(N)=O)C(=O)[C@@]2(O)C(O)=C3C(=O)c4c(O)cccc4[C@@](C)(O)[C@H]3[C@H](O)[C@@H]12 [Oxytetracycline_hydrochloride] | 0.6783 | 10.8661 | 4.2 | 50.4384 | 1.6523 | 24.772 | 2.447 | – |
| CC(C)(CO)C(O)C(=O)NCCCO (stereo not drawn) [Panthenol, 2,4-Dihydroxy-N-(3-hydroxypropyl)-3,3-dimethylbutanamide] | 767.225 | 20000 | 65.9596 | 4552.59 | 7221.82 | 20000 | 18298.9 | Specific binding [4]: 27.9%; IPP screening %, Coactivator recruitment [5]: 2.0%; HepaRG HTTr: concentration of single responding probe (HepaRG cells; BIFROST probe-level PoD): < 100 µM; HepaRG HTTr: next lowest probe (HepaRG cells; BIFROST probe-level PoD): 5100 µM; Specific binding [6]: 0.2%; Specific binding [7]: 7.3%; IPP screening %, Specific binding (Tubulin (r)): -5%; Specific binding [8]: -4.3%; Specific binding [9]: -1.9%; risk [10]: 0 |
| O=S(=O)([O-])NC1CCCCC1.[Na+] [Sodium_Cyclamate] | – | – | – | – | – | – | – | pod_httr_bifrost PoD (MCF7 cells): 202.953 µM; podl_path_minbmd PoD (MCF7 cells): 1200 µM; pod_httr_bifrost PoD (HepaRG cells): 485.622 µM; podl_path_minbmd PoD (HepaRG cells): 442.002 µM; pod_httr_bifrost PoD (HepG2 cells [2]): 12.9839 µM; podl_path_minbmd PoD (HepG2 cells [2]): 1200 µM |
| O=C(O)c1ccc2c(c1)C(=O)OC2=O [Trimellitic anhydride, 1,3-Dioxo-1,3-dihydro-2-benzofuran-5-carboxylic acid] | – | – | – | – | – | – | – | PoD (NOEL) (rat; rat, repeat dose, ref ECHA dossier): 300 mg/kg bw/day; NOAEL, dietary intake (rat; repeat dose, before adjustment, ref ECHA dossier): Adjusted from NOAEL of 10000ppm dietary intake - ECHA dossier. Other studies referenced are for trimellitic acid.; Specific binding [4]: 30.3%; IPP screening %, Coactivator recruitment [5]: 1.0%; Specific binding [6]: 9.9%; Specific binding [7]: 6.5%; IPP screening %, Coactivator recruitment [11]: -1.0%; IPP screening %, Specific binding (Tubulin (r)): 2%; Specific binding [8]: -6.6%; IPP screening %, Coactivator recruitment [12]: 1.0%; Specific binding [9]: 12.5%; IPP screening %, Specific binding [13]: -16.7% |
| O=C(O)c1ccc2c(c1)C(=O)OC2=O [Trimellitic_anhydride] | 423.806 | 854.401 | 236.503 | 100.049 | 404.103 | 1078.54 | 34.7606 | – |
| COc1ccc(CCN(C)CCCC(C#N)(c2ccc(OC)c(OC)c2)C(C)C)cc1OC (stereo not drawn) [Verapamil_hydrochloride] | 0.3576 | 10.6709 | 1.688 | 24.0605 | 1.132 | 8.538 | – | AC50 [1]: 0.017 µM |
| NC1CCCCC1 [cyclohexylamine] | – | – | – | – | – | – | – | NOAEL (rat; 90 day rat study, cyclohexylamine administered, ref [19-22]): 100 mg/kg bw/day; dose at which testicular toxicity was observed (rat; testicular atrophy and giant cell formation, ref [19-22]): ≥ 200 mg/kg bw/day |
